ChEMBL document CHEMBL1135677 (J Med Chem, 2002)
pIC50: −log10 of the molar value.

Assays:
[1] = test system: MCF7; experiment: Antiproliferative activity assessed in the MCF-7 human mamma carcinoma using the BrdU; type: functional, cell-based
[2] = test system: LXFL 529; experiment: Antiproliferative activity assessed in the LXFL529 human lung carcinoma using the BrdU; type: functional, cell-based
[3] = biological target: T1, Albumin (Homo sapiens, UniProt P02768); experiment: Second order rate constant after incubation with human serum albumin (HSA) at pH 7.4 in the absence of myristic acid
[4] = biological target: T1, Albumin; experiment: Second order rate constant after incubation with human serum albumin (HSA) at pH 7.4 in the presence of 5 equiv of myristic acid
[5] = Antiproliferative activity assessed in the RENCA murine renal cell carcinoma using the BrdU; type: functional, cell-based, Mus musculus

T1 sequence (P02768 whole entry): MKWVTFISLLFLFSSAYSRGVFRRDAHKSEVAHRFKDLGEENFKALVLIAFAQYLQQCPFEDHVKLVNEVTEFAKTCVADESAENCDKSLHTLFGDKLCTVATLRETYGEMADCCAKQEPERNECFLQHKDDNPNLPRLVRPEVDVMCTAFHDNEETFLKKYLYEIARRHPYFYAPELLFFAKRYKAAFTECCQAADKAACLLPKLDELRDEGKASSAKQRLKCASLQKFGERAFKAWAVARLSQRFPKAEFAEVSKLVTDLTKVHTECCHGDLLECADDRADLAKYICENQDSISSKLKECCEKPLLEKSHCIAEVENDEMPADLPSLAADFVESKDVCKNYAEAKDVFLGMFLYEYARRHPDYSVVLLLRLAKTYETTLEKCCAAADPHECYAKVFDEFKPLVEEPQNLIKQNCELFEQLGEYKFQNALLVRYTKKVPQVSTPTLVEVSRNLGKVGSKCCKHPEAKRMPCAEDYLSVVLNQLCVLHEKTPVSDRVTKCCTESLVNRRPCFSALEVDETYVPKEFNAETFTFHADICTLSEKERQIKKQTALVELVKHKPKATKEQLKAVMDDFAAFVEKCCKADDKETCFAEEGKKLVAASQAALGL

SMILES	pIC50 ([1]; Homo sapiens, MCF7)	pIC50 ([2]; Homo sapiens, LXFL 529)	k2 [3] [M⁻¹ s⁻¹]	k2 [4] [M⁻¹ s⁻¹]	also measured
COc1cccc2c1C(=O)c1c(O)c3c(c(O)c1C2=O)C[C@@](O)(C(=O)CO)C[C@@H]3O[C@H]1C[C@H](N)[C@H](O)[C@H](C)O1 [DOXORUBICIN]	7.40	7.40	–	–	–
COc1cccc2c1C(=O)c1c(O)c3c(c(O)c1C2=O)C[C@@](O)(/C(CO)=N/NC(=O)CCCCCCCN1C(=O)C=CC1=O)C[C@]3(C)COC1C[C@H](N)[C@](C)(O)[C@H](C)O1.Cl (some centres undefined)	–	–	10	16	–
COc1cccc2c1C(=O)c1c(O)c3c(c(O)c1C2=O)C[C@@](O)(/C(CO)=N/NC(=O)CCCN1C(=O)C=CC1=O)C[C@]3(C)COC1C[C@H](N)[C@](C)(O)[C@H](C)O1.Cl (some centres undefined)	–	–	25.17	19	–
COc1cccc2c1C(=O)c1c(O)c3c(c(O)c1C2=O)C[C@@](O)(/C(CO)=N/NC(=O)CCN1C(=O)C=CC1=O)C[C@]3(C)COC1C[C@H](N)[C@](C)(O)[C@H](C)O1.Cl (some centres undefined)	–	–	23.83	17.83	–
COc1cccc2c1C(=O)c1c(O)c3c(c(O)c1C2=O)C[C@@](O)(/C(CO)=N/NC(=O)CCCCCN1C(=O)CCC1=O)C[C@]3(C)COC1C[C@H](N)[C@](C)(O)[C@H](C)O1 (some centres undefined)	5.96	6.30	–	–	pIC50 ([5]; Mus musculus): 6.15
COc1cccc2c1C(=O)c1c(O)c3c(c(O)c1C2=O)C[C@@](O)(/C(CO)=N/NC(=O)CCCCCN1C(=O)C=CC1=O)C[C@]3(C)COC1C[C@H](N)[C@](C)(O)[C@H](C)O1.Cl (stereo in doubt; 3)	–	–	17.33	37.5	pIC50 ([1]; mcf7): 5.96; pIC50 ([2]; lxfl 529): 6.30; pIC50 [5]: 6.00
COc1cccc2c1C(=O)c1c(O)c3c(c(O)c1C2=O)C[C@@](O)(/C(CO)=N/NC(=O)CCCCCN1C(=O)C=CC1=O)C[C@]3(C)COC1C[C@H](N)[C@](C)(O)[C@H](C)O1 (stereo in doubt)	6.00	6.40	–	–	pIC50 ([5]; Mus musculus): 6.05
